± gives the expanded uncertainty stated by the source.
Conditions: Liquid; for mass density: 298.15 K, 101.33 kPa, Vibrating tube method; for vapor or sublimation pressure: Ebulliometric method (Recirculating still)

In the case of `C=C1CC/C=C(\C)CC[C@@H]2[C@@H]1CC2(C)C`, the mass density is reported as 896.8 ± 2 kg/m3, the “vapor or sublimation pressure” value (370.33 K) is reported as 0.51 ± 0.4 kPa and the “vapor or sublimation pressure” value (380.5 K) is reported as 0.84 ± 0.4 kPa. For the same compound, the “vapor or sublimation pressure” value (395.45 K) was 1.63 ± 0.41 kPa, the “vapor or sublimation pressure” value (420.02 K) was 4.31 ± 0.44 kPa and the “vapor or sublimation pressure” value (435.58 K) was 7.51 ± 0.52 kPa. For the same compound, the “vapor or sublimation pressure” value (454.18 K) was 13.85 ± 0.62 kPa, the “vapor or sublimation pressure” value (464.9 K) was 19.18 ± 0.78 kPa and the “vapor or sublimation pressure” value (474.02 K) was 24.96 ± 0.91 kPa. The “vapor or sublimation pressure” value (480.05 K) was 29.55 ± 1.1 kPa, the “vapor or sublimation pressure” value (491.45 K) was 40.33 ± 1.4 kPa and the “vapor or sublimation pressure” value (502.53 K) was 53.62 ± 1.7 kPa. For the same compound, the “vapor or sublimation pressure” value (512.49 K) was 68.83 ± 2.1 kPa, the “vapor or sublimation pressure” value (522.97 K) was 88.4 ± 2.4 kPa and the “vapor or sublimation pressure” value (528.78 K) was 101.33 ± 2.7 kPa.

In the case of `Cc1ccc(C(C)C)cc1` [1-(1-methylethyl)-4-methylbenzene], the mass density is reported as 853.2 ± 2 kg/m3 and the “vapor or sublimation pressure” value (450.28 K) is reported as 101.33 ± 6.1 kPa.

With `CC1=CCC2C(C1)C2(C)C` (centres undefined) [3,7,7-trimethylbicyclo[4.1.0]hept-3-ene] the mass density was 863.8 ± 2 kg/m3, the “vapor or sublimation pressure” value (356.07 K) was 5.32 ± 0.64 kPa and the “vapor or sublimation pressure” value (378.03 K) was 14.5 ± 0.68 kPa. For the same compound, the “vapor or sublimation pressure” value (388.7 K) was 20.46 ± 0.8 kPa, the “vapor or sublimation pressure” value (391.9 K) was 22.59 ± 1 kPa and the “vapor or sublimation pressure” value (396.66 K) was 26.61 ± 1.1 kPa. The “vapor or sublimation pressure” value (405.49 K) was 34.54 ± 1.3 kPa, the “vapor or sublimation pressure” value (412.42 K) was 42.81 ± 1.5 kPa and the “vapor or sublimation pressure” value (416.18 K) was 47.76 ± 1.8 kPa. For the same compound, the “vapor or sublimation pressure” value (424.04 K) was 59.53 ± 1.9 kPa, the “vapor or sublimation pressure” value (426.24 K) was 63.19 ± 2.1 kPa and the “vapor or sublimation pressure” value (430.64 K) was 70.97 ± 2.2 kPa. The “vapor or sublimation pressure” value (433.68 K) was 76.91 ± 2.4 kPa, the “vapor or sublimation pressure” value (436.32 K) was 82.05 ± 2.7 kPa and the “vapor or sublimation pressure” value (439.47 K) was 89.96 ± 2.8 kPa. The “vapor or sublimation pressure” value (442.61 K) was 96.43 ± 2.8 kPa and the “vapor or sublimation pressure” value (444.44 K) was 101.33 ± 3.2 kPa.
